Laboratory results from ChEMBL document CHEMBL1681729, “2-aminomethylphenylamine as a novel scaffold for factor Xa inhibitor” (Bioorg Med Chem, 2011).
In brackets after ≈: the same amount, converted by molar mass.

Legend:
[1] = Tmax in serum of cynomolgus monkey at 1 mg/kg, po after 0.5 to 24 hrs; assay type: ADME, organism-based, Macaca fascicularis; design: dose 1 mg/kg, route oral
[2] = Half life in serum of cynomolgus monkey at 1 mg/kg, po after 0.5 to 24 hrs; assay type: ADME, organism-based, Macaca fascicularis; design: dose 1 mg/kg, route oral
[3] = Cmax in serum of cynomolgus monkey at 1 mg/kg, po after 0.5 to 24 hrs by LC/MS/MS coupled with HPLC; assay type: ADME, organism-based, Macaca fascicularis; design: dose 1 mg/kg, route oral
[4] = AUC (0 to 24 hrs) in serum of cynomolgus monkey at 1 mg/kg, po after 0.5 to 24 hrs; assay type: ADME, organism-based, Macaca fascicularis; design: time < 24 hr, dose 1 mg/kg, route oral
[5] = biological target: Coagulation factor X (Homo sapiens, UniProt P00742); assay: Inhibition of factor 10a by S2222 chromogenic substrate assay by chromogenic assay
Coagulation factor X, sequence (P00742 41-179 limits assumed): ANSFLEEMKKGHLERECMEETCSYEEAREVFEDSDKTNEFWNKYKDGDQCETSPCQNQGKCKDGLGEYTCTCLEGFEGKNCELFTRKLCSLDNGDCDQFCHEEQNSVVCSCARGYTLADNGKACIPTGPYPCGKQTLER
Coagulation factor X, sequence (P00742 235-488 limits assumed): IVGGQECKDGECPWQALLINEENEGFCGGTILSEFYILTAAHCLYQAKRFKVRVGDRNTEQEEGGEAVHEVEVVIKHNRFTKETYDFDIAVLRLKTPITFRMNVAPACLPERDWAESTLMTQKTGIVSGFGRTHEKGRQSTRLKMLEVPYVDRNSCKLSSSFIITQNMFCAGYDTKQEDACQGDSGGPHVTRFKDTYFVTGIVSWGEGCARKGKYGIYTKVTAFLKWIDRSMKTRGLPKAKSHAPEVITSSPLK

[6] = Distribution coefficient, log D of the compound at pH 7.4 by LC-MS; assay type: physicochemical; conditions: octanol/water
[7] = tested on: Rattus norvegicus; assay: Inhibition of factor 10a in overnight fasted Wistar rat plasma at 10 mg/kg, po after 0.5 hrs by S2222 chromogenic substrate assay; assay type: functional
[8] = tested on: Plasma; assay: Anticoagulant activity in human plasma assessed as concentration required to double prothrombin time; assay type: functional
[9] = tested on: Rattus norvegicus; assay: Inhibition of factor 10a in overnight fasted Wistar rat plasma at 10 mg/kg, po after 2 hrs by S2222 chromogenic substrate assay; assay type: functional
[10] = Solubility of the compound in Japanese Pharmacopoeia First Fluid of pH 6.8 by HPLC; assay type: physicochemical
[11] = tested on: Rattus norvegicus; assay: Inhibition of factor 10a in overnight fasted Wistar rat plasma at 10 mg/kg, po after 4 hrs by S2222 chromogenic substrate assay; assay type: functional
[12] = Solubility of the compound in Japanese Pharmacopoeia First Fluid of pH 1.2 by HPLC; assay type: physicochemical
[13] = tested on: Rattus norvegicus; assay: Inhibition of factor 10a in overnight fasted Wistar rat plasma at 10 mg/kg, po after 1 hr by S2222 chromogenic substrate assay; assay type: functional

IC50 [5] [nM] | logD [6] | solubility [10] [µg/mL] | solubility [12] [µg/mL] | SMILES | Activity [8] [µM] | also measured
– | – | – | – | CN1CCc2nc(C(=O)Nc3ccccc3CNC(=O)c3ccc(Cl)s3)sc2C1.Cl | – | Tmax [1]: 30 min; half-life [2]: 228 min; Cmax [3]: 83.7 ng/mL; AUC(0-t) at 24 h [4]: 697 ng·h/mL
6830 | – | – | – | CN1CCc2nc(C(=O)N3CCCC(CNC(=O)c4ccc(Cl)s4)C3)sc2C1 (stereo unspecified) | – | –
4.1 | 2.8 | < 2.3 | < 2.3 | O=C(Nc1ccccc1CNC(=O)c1ccc(Cl)s1)c1ccc(N2CCOCC2=O)cc1 | 0.91 | inhibition in vivo at 10 mg/kg [7]: 17.1%; inhibition in vivo at 10 mg/kg [9]: 12.7%; inhibition in vivo at 10 mg/kg [11]: 12.7%; inhibition in vivo at 10 mg/kg [13]: 14.1%
439 | 3.5 | 440 (≈ 971 µM) | > 600 | CN1CCc2nc(C(=O)N[C@@H]3CCCC[C@H]3CNC(=O)c3ccc(Cl)s3)sc2C1 (relative stereo) | 17 | –
11 | 2.8 | 67 (≈ 150 µM) | 890 (≈ 1990 µM) | CN1CCc2nc(C(=O)Nc3cccnc3CNC(=O)c3ccc(Cl)s3)sc2C1 | 1 | –
642 | 3.4 | 42 (≈ 95.2 µM) | 560 (≈ 1270 µM) | CN1CCc2nc(C(=O)Nc3ccccc3CNC(=O)c3ccc(Cl)cc3)sc2C1 | – | –
18 | 2.2 | 120 (≈ 268 µM) | 860 (≈ 1920 µM) | CN1CCc2nc(C(=O)Nc3ncccc3CNC(=O)c3ccc(Cl)s3)sc2C1 | 1.5 | –
– | 3.3 | 17 (≈ 38 µM) | 150 (≈ 336 µM) | CN1CCc2nc(C(=O)Nc3ccccc3CNC(=O)c3ccc(Cl)s3)sc2C1 | – | –
2480 | 2.8 | 380 (≈ 860 µM) | 350 (≈ 792 µM) | CN1CCc2nc(C(=O)Nc3ccccc3CNC(=O)c3ccc(Cl)cn3)sc2C1 | – | –
204 | 1.5 | > 680 | > 680 | CC(C)N1CCC(C(=O)Nc2ccccc2CNC(=O)c2ccc(Cl)s2)CC1 | 5.2 | –
93 | – | – | – | CN1CCc2nc(C(=O)NCCCNC(=O)c3ccc(Cl)s3)sc2C1 | 7.6 | –
4150 | 2.7 | 150 (≈ 339 µM) | 760 (≈ 1720 µM) | CN1CCc2nc(C(=O)Nc3ccccc3CNC(=O)c3cc(Cl)ccn3)sc2C1 | – | –
48 | 3.2 | 170 (≈ 395 µM) | 690 (≈ 1600 µM) | CN1CCc2nc(C(=O)Nc3ccccc3CNC(=O)c3cc(Cl)c[nH]3)sc2C1 | 2.2 | –
1620 | 3.3 | 160 (≈ 363 µM) | 680 (≈ 1540 µM) | CN1CCc2nc(C(=O)Nc3ccccc3CNC(=O)c3cccc(Cl)c3)sc2C1 | – | –
623 | 2.8 | 100 (≈ 226 µM) | 600 (≈ 1360 µM) | CN1CCc2nc(C(=O)Nc3ccccc3CC(=O)Nc3ccc(Cl)cn3)sc2C1 | 17 | –
27 | 3.7 | 290 (≈ 640 µM) | 800 (≈ 1770 µM) | CN1CCc2nc(C(=O)N[C@@H]3CCCC[C@@H]3CNC(=O)c3ccc(Cl)s3)sc2C1 (relative stereo) | 3.4 | –
1020 | – | – | – | CN1CCc2nc(C(=O)N3CCC(NC(=O)c4ccc(Cl)s4)CC3)sc2C1 | >20 | –
> 10000 | 3.1 | 33 (≈ 76.8 µM) | > 810 | CN1CCc2nc(C(=O)Nc3ccccc3CNC(=O)c3ccc(Cl)[nH]3)sc2C1 | – | –
59 | 2.9 | 100 (≈ 224 µM) | > 640 | CN1CCc2nc(NC(=O)c3ccccc3CNC(=O)c3ccc(Cl)s3)sc2C1 | 2.3 | –
9 | 2.5 | 120 (≈ 255 µM) | 140 (≈ 298 µM) | O=C(NCc1ccccc1C(=O)Nc1ccc(N2CCOCC2=O)cc1)c1ccc(Cl)s1 | 1 | –
12 | 3.3 | > 4.9 | 880 (≈ 1960 µM) | CN1CCc2nc(C(=O)Nc3ccncc3CNC(=O)c3ccc(Cl)s3)sc2C1 | 1.4 | –
13 | 2.6 | > 590 | > 590 | CN1CCc2nc(C(=O)Nc3cnccc3CNC(=O)c3ccc(Cl)s3)sc2C1 | 1.8 | –
1930 | 1.4 | > 820 | 810 (≈ 1930 µM) | CC(C)N1CCC(NC(=O)c2ccccc2CNC(=O)c2ccc(Cl)s2)CC1 | – | –
5680 | – | – | – | CN1CCc2nc(C(=O)NCc3ccccc3NC(=O)c3ccc(Cl)s3)sc2C1 | – | –
